Results from patent US20240131029A1, “SELECTIVE ROCK2 INHIBITION FOR TREATMENT OF EDEMA AND ASSOCIATED CONDITIONS” (President and Fellows of Harvard College, priority 2021, published 2024).
Entries after “also recorded” stand apart in the source; their conditions may differ.

Experiments:
[1] = system: human dermal lymphatic endothelial cells (LECs), engineered lymphatic vessel; experiment: lymphatics-on-chip lymphatic drainage under cytokine challenge; format: cell-based
Source text: (§1) To overcome the issues outlined above, a microfluidic 3D culture model featuring an engineered lymphatic vessel that can drain interstitial fluid was developed. The device includes a polydimethylsiloxane (PDMS) housing and two parallel cylindrical channels within a 3D collagen hydrogel (FIG. 1A). Human dermal lymphatic endothelial cells (LECs) seeded in one channel generated an engineered lymphatic vessel (FIG. 1A) that expressed lymphatic endothelial markers with appropriate apical-basal orientation (FIG. 1A and FIG. 1B). Furthermore, stimulation with the lymphangiogenic vascular endothelial growth factor C (VEGFC) triggered lymphatic sprouting (FIG. 1C). To characterize the integrity of the lymphatic endothelium within the device, their junctional organization was examined by immunofluorescence.
To functionally assess this rudimentary lymphatic vessel required a measure of lymphatic drainage. To accomplish this, the second, cell-free channel was pressurized with a surrogate lymph fluid composed of fluorescently labeled lymph molecules, including fatty acids, phospholipids, albumin, and insoluble particles (data not shown). The interstitial fluid pressure triggered convective fluid transport into the engineered lymphatic vessel. Lymph fluid drained by the lymphatic vessel accumulated in the connected reservoirs and was collected for analysis. Human dermal blood microvascular endothelial cells-generated blood vessels or cell-free channels were used as controls. […] Time-lapse microscopy of drainage further confirmed that fluid entered the luminal space of lymphatic vessels faster than that of blood vessels (FIG. 1H and data not shown).
Inflammation is a primary driver of lymphedema (2, 9, 10), so the next set of experiments tested whether inflammatory cytokines could impair drainage in this system. […] To begin to characterize what signaling pathways might be involved in tightening the lymphatic junctions, inhibitors that might impact IL-2-induced junction assembly were identified (data not shown): PP2, a Src-family of protein tyrosine kinase inhibitor; Wortmannin, a PI3K inhibitor; Y27632, a ROCK inhibitor; GGTI298, a Rap1 inhibitor; NSC23766, a Rac1 inhibitor; Blebbistatin, a Myosin II inhibitor; and Cpd22, an integrin-linked kinase inhibitor.

[2] = system: tail vein edema; experiment: mouse tail edema following cautery injury; format: in vivo, mice; conditions: following cautery injury (FIG. 4A)
Protocol: Tail volume changes were quantified (FIG. 4B), and drainage to the iliac lymph nodes was assesses 1 hour after intradermal injection of Alexa647-conjugated albumin into tails of mice treated with KD025 or vehicle (FIG. 4C).

[3] = system: LEC junctions; experiment: junction staining of engineered lymphatic vessels (immunofluorescence); format: cell-based, human; conditions: 20 μM, IL-2 challenge
Source text: as §1
Inflammation is a primary driver of lymphedema (2, 9, 10), so the next set of experiments tested whether inflammatory cytokines could impair drainage in this system. […]

[4] = system: lymphedema in mouse tails; experiment: mouse tail lymphedema model (surgical ligation of peripheral lymphatics); format: in vivo
Protocol: To investigate the potential efficacy of ROCK inhibition in lymphedema, Y27632 was tested in an established mouse model of lymphedema (13, 14). Lymphedema was induced by surgical ligation of peripheral lymphatics in mouse tails (FIG. 2G). […] Tail-injured mice were left without any treatment for one month.

[5] = clinically used ROCK inhibitors, FIG. 2C

O=S(=O)(c1cccc2cnccc12)N1CCCNCC1 [Fasudil]
lymphatic drainage [1, 5]: similarly improved lymphatic drainage

C[C@H]1CNCCCN1S(=O)(=O)c1cccc2cncc(F)c12 [Ripasudil]
lymphatic drainage [1, 5]: similarly improved lymphatic drainage

CC(C)NC(=O)COc1cccc(-c2nc(Nc3ccc4[nH]ncc4c3)c3ccccc3n2)c1 [KD025, 2-[3-[4-(1H-indazol-5-ylamino)-2-quinazolinyl]phenoxy]-N-(1-methylethyl)-acetamide]
visible tail vein edema swelling [2]: reduced visible tail vein edema swelling | lymphatic drainage ([1]; 20 μM, IL-2 challenge (FIG. 3L)): reversed; also recorded: sufficient to reduce lymphatic drainage | tightening of the LEC junctions [3]: reversed tightening of the LEC junctions

C[C@@H](N)[C@H]1CC[C@H](C(=O)Nc2ccncc2)CC1 [Compound Y27632]
drainage to proximal lymph nodes compared to untreated control mice ([4]; 1 h after intradermal Alexa647-conjugated albumin (FIG. 2H)): tenfold higher drainage | time to complete resolution of lymphedema following treatment ([4]; delayed treatment, one month after tail injury): ≤ 2 weeks | reversal of existing chronic lymphedema ([4]; delayed treatment, one month after tail injury (FIG. 2I, 2J)): completely resolved the lymphedema | lymphedema (tail volume change), prevention ([4]; treatment after surgical ligation (FIG. 2G)): completely prevented lymphedema | lymphatic drainage ([1]; GM-CSF and G-CSF treated conditions (FIG. 2A, 2B)): normalized | lymphatic drainage ([1]; IL-2 treated lymphatic vessels): completely normalized the impaired drainage
